Data as given in patent publication US12435061B2 (priority 2020, dated 2025).
≈ marks a conversion by molar mass, not a printed value. Like-named read-outs stand apart in the source and are kept apart here.

Legend:
hTRPV3 [1] = molecular target: T1, hTRPV3 (Homo sapiens (Human), UniProt Q8NET8); experiment: Semi-auto patch clamp recording in nHEK cells (WT or TRPV3-mu transfected); assay type: cell-based
Procedure: Compounds were tested at room temperature using the whole-cell patch clamp technique with a HEKA EPC 10 usb patch-clamp amplifier (HEKA Elektronik, Germany). Output signals from the amplifier were digitized and recorded with PatchMaster (v2x90.5 HEKA Elektronik, Germany). For quality control, the minimum seal resistance was set at 100 MΩ, and the outward current was stabilized with at least 1 nA of rectifying current at +80 mV while the inward current was stabilized with at least 300 pA of rectifying current at −80 mV.
NPC-1 Chips (Nanion, Germany) were used to trap a single cell. For both WT or transfected cells, chips of the categories 2-3 MOhm and 3-5 MOhm were used. Chips are disposable and each recording required a new chip. 5 μl of internal solution was applied in the inner pore of the chip, then it was screwed on top of the inner electrode. The upper unit of the patch lamp device was assembled over the chip, and 15 μl external buffer were added between the chip pore and the external electrode.
Basal nHEK cells at Passage 2 or 3 and at the density of 70-90% confluency were used for patch clamp or transfection. For patch-clamp, cells were suspended in TrypLE enzyme for 5 min in 37° C., and then harvested using KBM-Gold media. Cells were then centrifuged for 5 min at 110 g RT. Supernatant was then removed, and cells were re-suspended in the KBM-Gold media and maintained at RT until patch-clamp. After patch clamp system was initialized, and once cell was capture on the chip, media was washed together with free cells, and replaced by external buffer. For TRPV3-mu transfected cells, cells were maintained in KBM-Gold media containing 3 uM of the tested antagonist.
nHEK cells were transfected according to SOP KP-Lab-001.For patch clamp, cells were seeded in 12 well plate and harvested 24 hours after transfection according to the SOP section 2.8.2 “Cell preparation for patch clamp”.
For WT nHEK cells, the “intermediate protocol” in the semi-automatic Port-a-Patch device software was selected based on the parameters: initial sealing, measured by resistance, and its ability to maintain sealing along with assay.
The procedure was started with the “Startup procedure” protocol that validates chip contact and adjusts offset, then after the system was ready, 5 μl of cells suspended in extracellular buffer was added and the intermediate protocol was automatically launched.
When a cell was trapped by vacuum, the value “v-membrane” was raised by 100%, then 15 μl of sealing solution was added. The procedure continued automatically through all its steps until the final step “maintain the whole-cell”. At this step, the sealing solution was washed using three 20 μl washes with an external buffer, and the values C-fast and C-slow were adjusted twice using the “Auto E” buttons.
The sensitivity of reading was adjusted by changing the gain from 2.0 to 0.5.
To initiate recording, the “Ramp” protocol was initiated, and currents were recorded for several minutes until the signal remained stable for both inward and outward currents.
For TRPV3-mu transfected nHEK cells, a similar procedure was used, but with “Fragile protocol”, and the addition of the antagonist at the step of sealing.
Nanion's system automatically maintained cells in the holding potential of −40 mV. Then the voltage was ramped from […] for 160 ms. Finally, the voltage was stepped back to the holding potential (−40 mV). This voltage command protocol was repeated in cycles of 400 ms (FIG. 1).
The solution was then gently mixed and current recording resumed.
Within each cellular recording, the percent of control values were calculated for each test compound concentration-current response based on peak current in the presence of the agonist and full response.
Target sequence in this assay (Q8NET8 whole entry, looked up): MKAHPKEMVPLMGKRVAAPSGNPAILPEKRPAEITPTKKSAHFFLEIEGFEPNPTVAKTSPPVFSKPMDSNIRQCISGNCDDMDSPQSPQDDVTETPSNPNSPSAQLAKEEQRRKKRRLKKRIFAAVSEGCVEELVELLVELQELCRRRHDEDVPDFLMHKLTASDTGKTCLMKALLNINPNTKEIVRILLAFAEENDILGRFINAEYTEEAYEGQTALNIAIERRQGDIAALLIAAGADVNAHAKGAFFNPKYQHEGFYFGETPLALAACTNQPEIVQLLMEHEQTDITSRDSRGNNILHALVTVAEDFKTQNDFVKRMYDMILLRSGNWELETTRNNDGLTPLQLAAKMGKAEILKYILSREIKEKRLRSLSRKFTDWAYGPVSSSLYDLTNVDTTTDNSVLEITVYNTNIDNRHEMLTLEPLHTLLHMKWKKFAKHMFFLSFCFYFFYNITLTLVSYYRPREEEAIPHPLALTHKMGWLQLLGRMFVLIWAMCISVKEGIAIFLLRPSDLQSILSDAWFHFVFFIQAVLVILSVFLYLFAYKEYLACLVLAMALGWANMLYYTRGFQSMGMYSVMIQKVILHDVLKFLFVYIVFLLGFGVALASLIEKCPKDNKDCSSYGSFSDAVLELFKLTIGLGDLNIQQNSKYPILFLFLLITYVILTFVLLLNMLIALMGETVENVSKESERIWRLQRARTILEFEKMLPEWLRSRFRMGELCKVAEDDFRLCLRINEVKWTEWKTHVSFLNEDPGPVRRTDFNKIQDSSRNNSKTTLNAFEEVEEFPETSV

hTRPV3 [2] = molecular target: T1, hTRPV3; experiment: Whole-cell patch clamp, hTRPV3 Phase 1 / Phase 2 currents; assay type: cell-based
In short: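 Whole-cell recordings on induced TRPV3 cells replated on coverslips, held at −40 mV with 400 ms ramps from −120 to +100 mV every 5 s; currents read at −80 and +80 mV. Ringer's external solution; current activated by heating to ≥28 °C or 20 μM 2-APB.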
Target sequence in this assay (Q8NET8 whole entry): as the sequence (Q8NET8 whole entry, looked up) above

human hERG channels = human hERG channels (Homo sapiens (Human), UniProt Q12809); experiment: hERG assay (patch clamp, CHO cells); assay type: cell-based
Chain of human hERG channels (Q12809 whole entry): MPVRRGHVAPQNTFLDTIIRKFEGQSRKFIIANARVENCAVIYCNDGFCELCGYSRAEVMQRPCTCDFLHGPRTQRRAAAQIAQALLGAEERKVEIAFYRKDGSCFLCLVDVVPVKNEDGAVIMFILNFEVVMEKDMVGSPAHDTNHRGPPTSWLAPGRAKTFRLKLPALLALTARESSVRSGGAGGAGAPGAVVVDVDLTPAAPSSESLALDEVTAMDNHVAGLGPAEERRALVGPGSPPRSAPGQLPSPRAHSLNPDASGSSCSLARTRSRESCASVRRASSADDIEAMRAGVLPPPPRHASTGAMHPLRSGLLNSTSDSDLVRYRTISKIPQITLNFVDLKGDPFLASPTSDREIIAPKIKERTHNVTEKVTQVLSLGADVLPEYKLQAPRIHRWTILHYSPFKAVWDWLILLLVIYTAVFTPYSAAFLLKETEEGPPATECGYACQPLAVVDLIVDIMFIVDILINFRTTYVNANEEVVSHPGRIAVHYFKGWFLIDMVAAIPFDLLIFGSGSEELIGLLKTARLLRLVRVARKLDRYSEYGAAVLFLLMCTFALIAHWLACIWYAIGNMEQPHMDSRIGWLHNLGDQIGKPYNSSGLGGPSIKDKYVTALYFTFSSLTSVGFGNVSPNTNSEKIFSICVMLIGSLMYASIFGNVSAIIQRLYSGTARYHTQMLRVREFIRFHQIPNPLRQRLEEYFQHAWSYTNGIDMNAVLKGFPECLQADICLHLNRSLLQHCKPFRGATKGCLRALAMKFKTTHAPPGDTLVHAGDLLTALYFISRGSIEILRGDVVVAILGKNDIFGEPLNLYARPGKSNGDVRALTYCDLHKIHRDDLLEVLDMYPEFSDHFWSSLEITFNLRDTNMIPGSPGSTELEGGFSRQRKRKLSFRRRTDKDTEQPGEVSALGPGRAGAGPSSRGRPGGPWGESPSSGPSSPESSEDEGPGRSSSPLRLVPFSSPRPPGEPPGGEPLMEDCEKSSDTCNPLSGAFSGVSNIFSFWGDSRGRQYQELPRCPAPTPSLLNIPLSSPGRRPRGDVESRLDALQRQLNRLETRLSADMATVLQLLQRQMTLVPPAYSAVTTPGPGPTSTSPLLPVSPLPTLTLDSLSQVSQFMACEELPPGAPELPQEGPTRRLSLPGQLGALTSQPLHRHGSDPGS
Procedure: hERG assay: Briefly, cells from a stable CHO cell line expressing human hERG channels were plated onto glass coverslips and used in patch clamp assays on the same day. After seal formation and break-in to whole-cell configuration, voltage steps were applied as follows: from the holding potential of −90 mV, a 2 second long step to +40 mV was applied, followed by a 1.5 second step to −50 mV. These steps were applied once every 5 seconds. The hERG current was measured at the peak of the outward tail current at −50 mV. The pipette solution was potassium aspartate based and the external solution was normal Ringer's.
All currents were recorded in whole-cell configuration using an Axopatch 200B controlled by pClamp 10 software (Molecular Devices). In each cell, when the current stabilized, the compound was perfused locally onto the cell. Two to three concentrations of the test compound were applied to each cell. At the end of compound testing, 10 μM verapamil was applied to completely block hERG currents and assess leak current.
Data were analyzed by computing the degree of current block after compound addition compared with the unblocked current amplitude. The unblocked current was predicted from the interpolation between the current amplitude prior to compound addition and after compound washout. The resulting percent block at each concentration was used to make a concentration-response plot and fitted to the Hill equation: percent block=minimum block+(maximum block-minimum block)/(1+10^(Hill slope*(log IC50−concentration))).

[3] = Metabolic Stability assay, rat liver microsomes; assay type: in vitro ADME; conditions: read-out: LM T1/2 (min) rat
In short: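 Test article at 1 μM starting concentration incubated with human or rat liver microsomes at 37 °C, with the reaction started by NADPH regeneration components. Aliquots were quenched in cold acetonitrile/MeOH/H2O at 0, 7, 15, 30 and 60 min and analysed by HPLC/MS/MS.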

[4] = Aqueous solubility assay in Normal Ringer Solution; conditions: Normal Ringer Solution, saline or isotonic, kinetic from dmso stock
Procedure: Following vortex and incubation for a sufficient time (e.g. 40 minutes at room temperature), solutions were filtered, quenched with acetonitrile, and analyzed by Liquid Chromotography. Solubility Limits were determined by comparison to a standard curve.

[5] = Phase 1 current, human TRPV3, read-out: hTRPV3 (nM) Phase 1
[6] = Phase 1 current, inward, whole-cell patch clamp, read-out: hTRPV3 Patch P1 Inwd

SMILES | IC50 (hTRPV3 [1]) | IC50 (hTRPV3 [2]; [5]) | IC50 (hTRPV3 [2]; [6]) | half-life at 1 μM [3] | solubility at 40 min [4] | further results
COc1cncc(C(=O)N2CCC(c3ccc(-c4cccc5c4CCC5)cc3CO)C2)n1 (stereo not shown) [KM-071, [3-(2-Hydroxymethyl-4-indan-4-yl-phenyl)-pyrrolidin-1-yl]-(6-methoxy-pyrazin-2-yl)-methanone] | 0.01 to 0.1 µM |  |  |  |  | 
COCc1cccc(C(=O)N2CC[C@H](c3ccc(-c4ccccc4C4CC4)cc3CO)C2)n1 (stereo in doubt) [KM-036-E1, [3-(2′-Cyclopropyl-3-hydroxymethyl-biphenyl-4-yl)-pyrrolidin-1-yl]-(6-methoxymethyl-pyridin-2-yl)-methanone] | 0.01 to 0.1 µM |  |  |  |  | 
CNc1cncc(C(=O)N2CC[C@H](c3ccc(-c4ccccc4C4CC4)cc3CO)C2)n1 (stereo in doubt) [KM-054-E1, [3-(2′-Cyclopropyl-3-hydroxymethyl-biphenyl-4-yl)-pyrrolidin-1-yl]-(6-methylamino-pyrazin-2-yl)-methanone] | < 0.01 µM |  |  |  |  | 
CC(C)c1ccccc1-c1ccc([C@@H]2CCN(C(=O)c3ccc(F)cn3)C2)c(CO)c1 [KM-002-E2] | 0.01 to 0.1 µM |  |  |  |  | 
Cc1cncc(C(=O)N2CC[C@H](c3ccc(-c4ccccc4C4CC4)cc3CO)C2)n1 (stereo in doubt) [KM-032-E1, [3-(2′-Cyclopropyl-3-hydroxymethyl-biphenyl-4-yl)-pyrrolidin-1-yl]-(6-methyl-pyrazin-2-yl)-methanone] | 0.01 to 0.1 µM |  |  |  |  | 
CCc1ccccc1-c1ccc(C2CCN(C(=O)c3cc(Cl)ccn3)C2)c(CO)c1 (stereo not shown) [Compound 2-48, (4-chloropyridin-2-yl)(3-(2′-ethyl-3-(hydroxymethyl)biphenyl-4-yl)pyrrolidin-1-yl) methanone] |  | 69.3 nM | 10 to 100 nM | 7.54 min | > 8 µM | IC50 (human hERG channels; (PL), read-out: hERG (nM) (PL)): 13400 nM
COCc1cccc(C(=O)N2CCC(c3ccc(-c4ccccc4C4CC4)cc3CO)C2)n1 (stereo not shown) [KM-036] | 0.01 to 0.1 µM |  |  |  |  | 
COc1cncc(C(=O)N2CC[C@H](c3ccc(-c4ccccc4C4CC4)cc3CO)C2)n1 (stereo in doubt) [KM-031-E1, [3-(2′-Cyclopropyl-3-hydroxymethyl-biphenyl-4-yl)-pyrrolidin-1-yl]-(6-methoxy-pyrazin-2-yl)-methanone] | 0.01 to 0.1 µM |  |  |  |  | 
CC(C)c1ccccc1-c1ccc([C@H]2CCN(C(=O)c3ccc(F)cn3)C2)c(CO)c1 (stereo in doubt) [KM-002-E1, (5-Fluoro-pyridin-2-yl)-[3-(3-hydroxymethyl-2′-isopropyl-biphenyl-4-yl)-pyrrolidin-1-yl]-methanone] | < 0.01 µM |  |  |  |  | 
CCc1c(C)cccc1-c1ccc(C2CCN(C(=O)c3ccc(F)cn3)C2)c(CO)c1 (stereo not shown) [Compound 2-64, (3-(2′-ethyl-3-(hydroxymethyl)-3′-methylbiphenyl-4-yl)pyrrolidin-1-yl)(5-fluoropyridin-2-yl)methanone] |  | 18 nM | 10 to 100 nM | 6.38 min | > 15.7 µM | IC50 (human hERG channels; (PL), read-out: hERG (nM) (PL)): 10100 nM
CC(C)c1ccccc1Oc1ccc(C2CCN(C(=O)c3ccc(F)cn3)C2)c(CO)c1 (stereo not shown) [Compound 2-16, (5-fluoropyridin-2-yl)(3-(2-(hydroxymethyl)-4-(2-isopropylphenoxy)phenyl)pyrrolidin-1-yl)methanone] |  | 29.7 nM | 10 to 100 nM | 5.3 min | ~4.7 µM (≈ 2.04 µg/mL) | IC50 (hTRPV3 [2]; Phase 2 current, human TRPV3, read-out: hTRPV3 (nM) Phase 2): 25.7 nM; IC50 (hTRPV3 [2]; Phase 2 current, inward, whole-cell patch clamp, read-out: hTRPV3 Patch P2 Inwd): 10 to 100 nM; IC50 (human hERG channels; (PL), read-out: hERG (nM) (PL)): 9650 nM
CNc1cncc(C(=O)N2CCC(c3ccc(-c4ccccc4C(C)C)cc3CO)C2)n1 (stereo not shown) [KM-069, [3-(3-Hydroxymethyl-2′-isopropyl-biphenyl-4-yl)-pyrrolidin-1-yl]-(6-methylamino-pyrazin-2-yl)-methanone] | 0.01 to 0.1 µM |  |  |  |  | 
CCc1cncnc1Oc1ccc(C2CCN(C(=O)c3ncccc3Cl)C2)c(CO)c1 (stereo not shown) [Compound 2-22, (3-chloropyridin-2-yl)(3-(4-(5-ethylpyrimidin-4-yloxy)-2-(hydroxymethyl)phenyl)pyrrolidin-1-yl)methanone] |  | > 3200 nM | > 1000 nM | 31.8 min | > 20.3 µM | IC50 (human hERG channels; (PL), read-out: hERG (nM) (PL)): > 32000 nM
COCc1cncc(C(=O)N2CCC(c3ccc(-c4ccccc4C4CC4)cc3CO)C2)n1 (stereo not shown) [KM-070, [3-(2′-Cyclopropyl-3-hydroxymethyl-biphenyl-4-yl)-pyrrolidin-1-yl]-(6-methoxymethyl-pyrazin-2-yl)-methanone] | 0.01 to 0.1 µM |  |  |  |  | 
Cc1nc(C(=O)N2CC[C@H](c3ccc(-c4ccccc4C4CC4)cc3CO)C2)ccc1O (stereo in doubt) [KM-023-E1, [3-(2′-Cyclopropyl-3-hydroxymethyl-biphenyl-4-yl)-pyrrolidin-1-yl]-(5-hydroxy-6-methyl-pyridin-2-yl)-methanone] | < 0.01 µM |  |  |  |  | 
Cc1nc(C(=O)N2CCC(c3ccc(-c4ccc(F)cc4C4CC4)cc3CO)C2)ccc1O (stereo not shown) [KM-084] | 0.01 to 0.1 µM |  |  |  |  | 
Cc1nc(C(=O)N2CCC(c3ccc(-c4cc(F)ccc4C4CC4)cc3CO)C2)ccc1O (stereo not shown) [KM-085] | < 0.01 µM |  |  |  |  | 
CCc1ccccc1-c1ccc(C2CCN(C(=O)c3ccc(F)cn3)C2)c(CO)c1 (stereo not shown) [Compound 2-28, (3-(2′-ethyl-3-(hydroxymethyl)biphenyl-4-yl)pyrrolidin-1-yl)(5-fluoropyridin-2-yl)methanone] |  | 19.6 nM | 10 to 100 nM | 18.4 min | > 15 µM | IC50 (human hERG channels; (PL), read-out: hERG (nM) (PL)): 13700 nM
CC(C)c1ccccc1Oc1ccc(C2CCN(C(=O)c3cccc(Cl)n3)C2)c(CO)c1 (stereo not shown) [Compound 2-20, (6-chloropyridin-2-yl)(3-(2-(hydroxymethyl)-4-(2-isopropylphenoxy)phenyl)pyrrolidin-1-yl)methanone] |  | 62 nM | 10 to 100 nM | 8.33 min | ~1.6 µM (≈ 0.722 µg/mL) | IC50 (human hERG channels): ~5330 nM; IC50 (human hERG channels; (M), read-out: hERG): 3910 nM
